Residue numbers refer to the chain shown, from its start.
Assays:
Oryctolagus cuniculus [1] = species: Oryctolagus cuniculus; assay: PD' 2 value was evaluated for antagonistic activity in rabbit aorta; assay type: functional
Canis familiaris [2] = assay: Compound at an oral dose of 30 mg/Kg was tested for the inhibition of Ang-II induced pressor responses in conscious dog; assay type: functional; conditions: Canis lupus familiaris
Rattus norvegicus [3] = assay: Intravenous effective dose against Ang II-induced pressor responses in conscious rats; assay type: functional
Oryctolagus cuniculus [4] = species: Oryctolagus cuniculus; assay: (§1) Compound was tested for its antagonistic activity against angiotensin II-induced contractions in rabbit aorta; assay type: functional
[5] = target: T1, Angiotensin II receptor (AT-1) type-1 (Rattus norvegicus, UniProt P29089+P25095); assay: In vitro antagonistic potency against Angiotensin II receptor, type 1 in rat adrenal cortex; assay type: functional, tissue-based
T1 sequence (P29089 whole entry): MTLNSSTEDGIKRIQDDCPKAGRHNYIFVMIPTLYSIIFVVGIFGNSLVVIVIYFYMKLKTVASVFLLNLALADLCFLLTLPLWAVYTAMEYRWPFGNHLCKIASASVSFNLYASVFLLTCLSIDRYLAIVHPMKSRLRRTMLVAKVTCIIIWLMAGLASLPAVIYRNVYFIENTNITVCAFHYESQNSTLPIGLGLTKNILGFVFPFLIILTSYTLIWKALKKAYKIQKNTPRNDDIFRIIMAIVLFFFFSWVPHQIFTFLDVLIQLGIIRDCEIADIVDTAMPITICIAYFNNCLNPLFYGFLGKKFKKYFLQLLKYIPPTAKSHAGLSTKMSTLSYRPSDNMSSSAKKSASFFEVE
T1 sequence (P25095 whole entry): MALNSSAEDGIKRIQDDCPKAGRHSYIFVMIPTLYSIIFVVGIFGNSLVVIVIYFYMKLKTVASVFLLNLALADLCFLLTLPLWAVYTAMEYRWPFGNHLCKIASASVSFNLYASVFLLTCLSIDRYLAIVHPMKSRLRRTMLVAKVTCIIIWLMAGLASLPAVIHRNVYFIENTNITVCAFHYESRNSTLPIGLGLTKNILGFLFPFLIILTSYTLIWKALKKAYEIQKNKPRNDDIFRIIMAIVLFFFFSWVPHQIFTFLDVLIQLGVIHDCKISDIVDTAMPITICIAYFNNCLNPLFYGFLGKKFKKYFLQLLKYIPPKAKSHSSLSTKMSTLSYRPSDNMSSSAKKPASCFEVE

[6] = target: T2, Type-1 angiotensin II receptor (Oryctolagus cuniculus, UniProt P34976); assay: Binding affinity was evaluated towards Angiotensin II receptor, type 1 in rabbit aorta; assay type: tissue-based
T2 sequence (P34976 whole entry): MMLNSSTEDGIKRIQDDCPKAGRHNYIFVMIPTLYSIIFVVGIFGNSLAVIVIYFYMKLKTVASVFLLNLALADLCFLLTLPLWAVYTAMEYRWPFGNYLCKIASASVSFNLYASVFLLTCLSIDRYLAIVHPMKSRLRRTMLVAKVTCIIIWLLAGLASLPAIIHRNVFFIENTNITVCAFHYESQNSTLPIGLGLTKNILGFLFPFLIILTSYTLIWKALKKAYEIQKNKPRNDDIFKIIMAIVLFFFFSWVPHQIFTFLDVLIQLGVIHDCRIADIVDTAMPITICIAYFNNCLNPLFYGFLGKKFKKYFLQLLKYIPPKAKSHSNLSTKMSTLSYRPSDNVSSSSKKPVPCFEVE

Oryctolagus cuniculus [7] = species: Oryctolagus cuniculus; assay: Inhibitory activity against angiotensin II type 1 induced contractions in rabbit aorta; assay type: functional
Oryctolagus cuniculus [8] = species: Oryctolagus cuniculus; assay: as §1; assay type: functional, organism-based
HASMC = assay: Inhibitory activity against Ang II-induced proliferation of human aortic smooth muscle cells in a dose-dependent manner; assay type: functional, cell-based
Rattus norvegicus [9] = assay: Oral effective dose required for inhibition of pressor response in conscious rats; assay type: functional
Rattus norvegicus [10] = assay: Oral effective dose required for inhibition of Ang II pressor response in conscious rat; assay type: functional
Rhesus monkey = assay: Oral effective dose required for inhibition of Ang II pressor response in conscious rhesus monkey; assay type: functional, Cercopithecidae; conditions: Macaca mulatta
Canis familiaris [11] = assay: Oral effective dose required for inhibition of Ang II pressor response in conscious dog; assay type: functional; conditions: Canis lupus familiaris
Rattus norvegicus [12] = assay: Compound at an oral dose of 3 mg/Kg was tested for the inhibition of Ang-II induced pressor responses in conscious rats; assay type: functional
[13] = target: T3, Type-1 angiotensin II receptor (Homo sapiens, UniProt P30556); assay: Inhibition of Angiotensin II receptor, type 1
T3 sequence (P30556 whole entry): T2 sequence (P34976 whole entry) with M2I, A49V, V254I, V270I, H272R, K311R, S349T, V353A

[14] = target: T4, Type-2 angiotensin II receptor (Homo sapiens, UniProt P50052); assay: Inhibition of Angiotensin II receptor, type 2
T4 sequence (P50052 whole entry): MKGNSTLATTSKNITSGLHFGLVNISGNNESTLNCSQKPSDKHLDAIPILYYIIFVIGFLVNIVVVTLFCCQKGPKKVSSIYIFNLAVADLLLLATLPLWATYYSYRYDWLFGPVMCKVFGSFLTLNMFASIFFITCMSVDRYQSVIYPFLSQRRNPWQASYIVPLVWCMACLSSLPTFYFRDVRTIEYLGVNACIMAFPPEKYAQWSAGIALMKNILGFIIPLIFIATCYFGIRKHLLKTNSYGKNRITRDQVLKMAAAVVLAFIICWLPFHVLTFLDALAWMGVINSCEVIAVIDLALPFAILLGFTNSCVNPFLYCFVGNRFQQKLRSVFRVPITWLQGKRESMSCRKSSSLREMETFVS

Rattus norvegicus [15] = assay: Percent inhibition was evaluated against Ang II pressor in rats at dose 3 mg/kg, by oral administration; assay type: functional
[16] = Oral bioavailability in rat; assay type: ADME, organism-based; conditions: in vivo
Rattus norvegicus [17] = species: Rattus norvegicus; assay: pA2 value was evaluated against angiotensin II-induced aldosterone release in rat adrenal cortical cells; assay type: functional, cell-based; conditions: read-out: pA2 (converted)
[18] = Oral bioavailability was evaluated in rhesus monkey; assay type: ADME, organism-based, Macaca mulatta; conditions: in vivo
Rattus norvegicus [19] = assay: Intravenous effective dose required for inhibition of Ang II pressor response in conscious rat; assay type: functional
[20] = Oral bioavailability was evaluated in rat by oral administration; assay type: ADME, organism-based; conditions: in vivo
Rattus norvegicus [21] = assay: Intravenous effective dose required for lowering blood pressure in renal hypertensive rats (RHR); assay type: functional
[22] = target: T4, Type-2 angiotensin II receptor; assay: Ki value was evaluated against Angiotensin II receptor, type 2
[23] = target: T3, Type-1 angiotensin II receptor; assay: Ki value was evaluated against Angiotensin II receptor, type 1
Rattus norvegicus [24] = species: Rattus norvegicus; assay: Effective dose required for lowering blood pressure in renal hypertensive rats (RHR); assay type: functional

**Q.** For `CCc1nc2c(n1Cc1ccc(-c3ccccc3-c3nn[nH]n3)cc1)/C(=C/C(=O)O)CCCC2`, which “PD' 2” value (Oryctolagus cuniculus [1]) is on record?
**A.** 9.91

**Q.** For `CCCCc1nc(CCCC)n(Cc2ccc(-c3ccccc3-c3nnn[nH]3)nc2)n1` [FORASARTAN], which inhibition in vivo at 30 mg/kg (Canis familiaris [2]) is on record?
**A.** 91%

**Q.** For `CCCCc1nc(Cl)c(C(=O)O)n1Cc1cccc2c1ccn2-c1ccccc1-c1nn[nH]n1`, which ED50 (Rattus norvegicus [3]) is on record?
**A.** 0.22 µmol/kg

**Q.** What about the Kb (Oryctolagus cuniculus [4]) of the same compound?
**A.** 0.068 nM

**Q.** And the Ki [5]?
**A.** 800 nM

**Q.** Which results are given for `CCCCc1nc(C)n(Cc2sccc2C(=O)OC)c(=O)c1Cc1ccc(-c2ccccc2-c2nnn[nH]2)cc1`?
**A.** Ki [6]: 0.9 nM; pKb (Oryctolagus cuniculus [4]): 9.5

**Q.** Which IC50 (Oryctolagus cuniculus [7]) does the source give for `CCOc1nc2cccc(C(=O)O)c2n1Cc1ccc(-c2ccccc2-c2nnn[nH]2)cc1` here?
**A.** 0.3 nM

**Q.** With `CCCCC1=NC2(CCCC2)C(=O)N1Cc1ccc(-c2ccccc2-c2nnn[nH]2)cc1` [IRBESARTAN] as the compound, how does the IC50 (Oryctolagus cuniculus [8]) read?
**A.** 4 nM

**Q.** And the IC50 (HASMC)?
**A.** 320 nM

**Q.** For `CCCCc1nc(Cl)c(C(=O)OC(C)OC(=O)OCC)n1Cc1ccc(-c2ccccc2-c2nn[nH]n2)cc1` (stereo not given), which ED50 (Rattus norvegicus [9]) is on record?
**A.** 0.5 mg/kg

**Q.** Which results are given for `CCc1nc2c(C)cc(C)nc2n1Cc1ccc(-c2ccccc2S(=O)(=O)NC(=O)c2ccccc2)cc1`?
**A.** ED50 (Rattus norvegicus [10]): 0.067 mg/kg; ED50 (Rhesus monkey): 0.1 mg/kg; ED50 (Canis familiaris [11]): 0.035 mg/kg

**Q.** With `CCc1nc2c(C)cc(C)nc2n1Cc1ccc2c(c1)C(Cc1nnn[nH]1)c1ccccc1-2` (stereo not given) as the compound, how does the inhibition in vivo at 3 mg/kg (Rattus norvegicus [12]) read?
**A.** 73%

**Q.** What does the source list for `CCCCCN(Cc1ccc(-c2ccccc2-c2nn[nH]n2)cc1)C(=O)N1CCN(C(=O)N(c2ccccc2)c2ccccc2)[C@H](C(=O)O)C1`?
**A.** IC50 [13]: 15 nM; IC50 [14]: 180 nM; inhibition in vivo at 3 mg/kg (Rattus norvegicus [15]): 80%

**Q.** For `CCc1nc2c(C)cc(C)nc2n1Cc1ccc(-c2ccccc2-c2nn[nH]n2)cc1` [L-158809], which bioavailability [16] is on record?
**A.** 100%

**Q.** What about the ED50 (Rattus norvegicus [10]) of the same compound?
**A.** 0.023 mg/kg

**Q.** What about the Kb (Rattus norvegicus [17]) of the same compound?
**A.** 0.0316 nM

**Q.** What about the bioavailability [18] of the same compound?
**A.** 32%

**Q.** And the ED50 (Rattus norvegicus [19])?
**A.** 0.029 mg/kg

**Q.** What about the Kb (Oryctolagus cuniculus [4]) of the same compound?
**A.** 0.28 nM

**Q.** And the pKB (Oryctolagus cuniculus [4])?
**A.** 9.3

**Q.** And the bioavailability [20]?
**A.** 70%

**Q.** With `CCCCCN(C(=O)NC)c1ccc2nc(CCCC)n(Cc3ccc(NC(=O)c4c(Cl)ccc(Cl)c4C(=O)O)cc3)c2c1` as the compound, how does the ED30 (Rattus norvegicus [21]) read?
**A.** 2 mg/kg

**Q.** What about the Ki [22] of the same compound?
**A.** 730 nM

**Q.** What about the Ki [23] of the same compound?
**A.** 20 nM

**Q.** With `CCCCc1nc(Cl)c(CC(=O)OC)n1Cc1ccc(NC(=O)c2ccccc2C(=O)O)cc1` as the compound, how does the ED30 (Rattus norvegicus [24]) read?
**A.** 11 mg/kg
